Experimental data published in ChEMBL document CHEMBL1146781, “Structural differences between paroxetine and femoxetine responsible for differential inhibition of Staphylococcus aureus efflux pumps” (2004).
Converted amounts (≈) assume the structure as drawn.

What was measured:
Staphylococcus aureus [1] = assay: Minimum inhibitory concentration (MIC) against Staphylococcus aureus 1199B; Range 50 - 6.3 ug/mL; assay type: functional
Staphylococcus aureus [2] = assay: Minimum inhibitory concentration (MIC) against Staphylococcus aureus K2068; Range 12.5 1.6 ug/mL; assay type: functional
Staphylococcus aureus [3] = assay: Concentration required to reduce Minimum inhibitory concentration (MIC) of Norfloxacin against Staphylococcus aureus 1199B by 8 folds; assay type: functional, organism-based
Staphylococcus aureus [4] = assay: Percent inhibition of EtBr efflux against Staphylococcus aureus 1199B at 50 concentration; assay type: functional
Staphylococcus aureus [5] = assay: Concentration required to reduce Minimum inhibitory concentration (MIC) of Norfloxacin against Staphylococcus aureus 1199B by 4 folds; assay type: functional, organism-based

## CCn1cc(C(=O)O)c(=O)c2cc(F)c(N3CCNCC3)cc21 [NORFLOXACIN]
Staphylococcus aureus [1]
  MIC: 50 µg/mL (≈ 157 µM)
Staphylococcus aureus [2]
  MIC: 12.5 µg/mL (≈ 39.1 µM)

## Fc1ccc([C@@H]2CCNC[C@H]2COc2ccc3c(c2)OCO3)cc1
Staphylococcus aureus [3]
  Concentration: 25 µg/mL

## CN1CC[C@@H](c2ccc(F)cc2)[C@H](COc2ccc3c(c2)OCO3)C1
Staphylococcus aureus [4]
  Inhibition: ~50%

## COC(=O)[C@H]1[C@H]2C[C@@H]3c4[nH]c5cc(OC)ccc5c4CCN3C[C@H]2C[C@@H](OC(=O)c2cc(OC)c(OC)c(OC)c2)[C@@H]1OC
Staphylococcus aureus [5]
  Concentration: 20 µg/mL

## Fc1ccc([C@H]2CCNC[C@@H]2COc2ccc3c(c2)OCO3)cc1
Staphylococcus aureus [3]
  Concentration: 20 µg/mL
